Laboratory results: PubChem BioAssay (NCI)
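Step 1: Grow cells in 96-well plates. Step 2: Expose to compound for 48 hours at 5 concentrations. Step 3: Interpolate endpoints linearly; if unreached, use highest concentration. TGI marks complete inhibition of growth.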

Tests used:
Test in all cases: NCI-60 cell line screen, 48 h
786-0 renal = system: 786-0 renal
A498 renal = system: A498 renal
A549 NSCLC = system: A549 NSCLC
ACHN renal = system: ACHN renal
CAKI-1 renal = system: CAKI-1 renal
CCRF-CEM leukemia = system: CCRF-CEM leukemia
COLO 205 colon = system: COLO 205 colon
DLD-1 colon = system: DLD-1 colon
DMS 114 small cell lung = system: DMS 114 small cell lung
DMS 273 small cell lung = system: DMS 273 small cell lung
EKVX NSCLC = system: EKVX NSCLC
HCC-2998 colon = system: HCC-2998 colon
HCT-116 colon = system: HCT-116 colon
HCT-15 colon = system: HCT-15 colon
HL-60(TB) leukemia = system: HL-60(TB) leukemia
HOP-62 NSCLC = system: HOP-62 NSCLC
HOP-92 NSCLC = system: HOP-92 NSCLC
HT29 colon = system: HT29 colon
IGROV1 ovarian = system: IGROV1 ovarian
K-562 leukemia = system: K-562 leukemia
KM12 colon = system: KM12 colon
KM20L2 colon = system: KM20L2 colon
LOX IMVI melanoma = system: LOX IMVI melanoma
LXFL 529 NSCLC = system: LXFL 529 NSCLC
M14 melanoma = system: M14 melanoma
M19-MEL melanoma = system: M19-MEL melanoma
MALME-3M melanoma = system: MALME-3M melanoma
MOLT-4 leukemia = system: MOLT-4 leukemia
NCI-H226 lung = system: NCI-H226 lung
NCI-H23 lung = system: NCI-H23 lung
NCI-H460 lung = system: NCI-H460 lung
NCI-H522 lung = system: NCI-H522 lung
OVCAR-3 ovarian = system: OVCAR-3 ovarian
OVCAR-4 ovarian = system: OVCAR-4 ovarian
OVCAR-5 ovarian = system: OVCAR-5 ovarian
OVCAR-8 ovarian = system: OVCAR-8 ovarian
RPMI-8226 leukemia = system: RPMI-8226 leukemia
SF-295 CNS = system: SF-295 CNS
SF-539 CNS = system: SF-539 CNS
SK-MEL-2 melanoma = system: SK-MEL-2 melanoma
SK-MEL-28 melanoma = system: SK-MEL-28 melanoma
SK-MEL-5 melanoma = system: SK-MEL-5 melanoma
SK-OV-3 ovarian = system: SK-OV-3 ovarian
SN12C renal = system: SN12C renal
SNB-19 CNS = system: SNB-19 CNS
SNB-75 CNS = system: SNB-75 CNS
SNB-78 CNS = system: SNB-78 CNS
SW-620 colon = system: SW-620 colon
TK-10 renal = system: TK-10 renal
U251 CNS = system: U251 CNS
UACC-257 melanoma = system: UACC-257 melanoma
UACC-62 melanoma = system: UACC-62 melanoma
UO-31 renal = system: UO-31 renal
XF 498 CNS = system: XF 498 CNS
RXF 393 renal = system: RXF 393 renal
SF-268 CNS = system: SF-268 CNS

Cc1ccc(C2C(Cl)C(=O)N2NC(=O)c2ccc(N)cc2)cc1 (configuration not stated)
TGI (786-0 renal): 37.8 µM
TGI (A498 renal): 56.4 µM
TGI (A549 NSCLC): 71.7 µM
TGI (ACHN renal): > 100 µM
TGI (CAKI-1 renal): 38.3 µM
TGI (CCRF-CEM leukemia): 39.2 µM
TGI (COLO 205 colon): 44.6 µM
TGI (DLD-1 colon): 40.2 µM
TGI (DMS 114 small cell lung): 23.3 µM
TGI (DMS 273 small cell lung): 17.4 µM
TGI (EKVX NSCLC): 49.7 µM
TGI (HCC-2998 colon): > 100 µM
TGI (HCT-116 colon): 28.3 µM
TGI (HCT-15 colon): 29.9 µM
TGI (HL-60(TB) leukemia): 31.2 µM
TGI (HOP-62 NSCLC): 50.2 µM
TGI (HOP-92 NSCLC): 28.5 µM
TGI (HT29 colon): 39.9 µM
TGI (IGROV1 ovarian): 25.2 µM
TGI (K-562 leukemia): 61.2 µM
TGI (KM12 colon): > 100 µM
TGI (KM20L2 colon): 48.2 µM
TGI (LOX IMVI melanoma): 24.4 µM
TGI (LXFL 529 NSCLC): 29.3 µM
TGI (M14 melanoma): 36.6 µM
TGI (M19-MEL melanoma): 38.9 µM
TGI (MALME-3M melanoma): 32.1 µM
TGI (MOLT-4 leukemia): 35.3 µM
TGI (NCI-H226 lung): 65.4 µM
TGI (NCI-H23 lung): 38.3 µM
TGI (NCI-H460 lung): 35.5 µM
TGI (NCI-H522 lung): 25.6 µM
TGI (OVCAR-3 ovarian): 36.7 µM
TGI (OVCAR-4 ovarian): > 100 µM
TGI (OVCAR-5 ovarian): 47.9 µM
TGI (OVCAR-8 ovarian): 38.8 µM
TGI (RPMI-8226 leukemia): 78.9 µM
TGI (SF-295 CNS): 47.8 µM
TGI (SF-539 CNS): 41.6 µM
TGI (SK-MEL-2 melanoma): 19.8 µM
TGI (SK-MEL-28 melanoma): 26 µM
TGI (SK-MEL-5 melanoma): 29.7 µM
TGI (SK-OV-3 ovarian): 37.4 µM
TGI (SN12C renal): 52.2 µM
TGI (SNB-19 CNS): 33.5 µM
TGI (SNB-75 CNS): > 100 µM
TGI (SNB-78 CNS): 46.2 µM
TGI (SW-620 colon): 41.3 µM
TGI (TK-10 renal): > 100 µM
TGI (U251 CNS): 28.3 µM
TGI (UACC-257 melanoma): 66.1 µM
TGI (UACC-62 melanoma): 31.4 µM
TGI (UO-31 renal): 86.5 µM
TGI (XF 498 CNS): 26.5 µM

C=C(CO)CC(/C=C(\C)CC/C=C(\C)CCl)OC(C)=O (configuration not stated)
TGI (786-0 renal): > 100 µM
TGI (A498 renal): > 100 µM
TGI (A549 NSCLC): > 100 µM
TGI (ACHN renal): > 100 µM
TGI (CCRF-CEM leukemia): > 100 µM
TGI (COLO 205 colon): > 100 µM
TGI (DLD-1 colon): > 100 µM
TGI (DMS 114 small cell lung): > 100 µM
TGI (DMS 273 small cell lung): > 100 µM
TGI (EKVX NSCLC): > 100 µM
TGI (HCC-2998 colon): > 100 µM
TGI (HCT-116 colon): > 100 µM
TGI (HCT-15 colon): > 100 µM
TGI (HL-60(TB) leukemia): > 100 µM
TGI (HOP-62 NSCLC): > 100 µM
TGI (HOP-92 NSCLC): > 100 µM
TGI (HT29 colon): > 100 µM
TGI (IGROV1 ovarian): > 100 µM
TGI (K-562 leukemia): > 100 µM
TGI (KM12 colon): > 100 µM
TGI (KM20L2 colon): > 100 µM
TGI (LOX IMVI melanoma): > 100 µM
TGI (LXFL 529 NSCLC): > 100 µM
TGI (M14 melanoma): > 100 µM
TGI (M19-MEL melanoma): > 100 µM
TGI (MOLT-4 leukemia): > 100 µM
TGI (NCI-H226 lung): > 100 µM
TGI (NCI-H23 lung): > 100 µM
TGI (NCI-H460 lung): > 100 µM
TGI (NCI-H522 lung): > 100 µM
TGI (OVCAR-3 ovarian): > 100 µM
TGI (OVCAR-4 ovarian): > 100 µM
TGI (OVCAR-5 ovarian): > 100 µM
TGI (OVCAR-8 ovarian): > 100 µM
TGI (RPMI-8226 leukemia): > 100 µM
TGI (RXF 393 renal): > 100 µM
TGI (SF-268 CNS): > 100 µM
TGI (SF-295 CNS): > 100 µM
TGI (SF-539 CNS): > 100 µM
TGI (SK-MEL-2 melanoma): > 100 µM
TGI (SK-MEL-28 melanoma): > 100 µM
TGI (SK-MEL-5 melanoma): > 100 µM
TGI (SK-OV-3 ovarian): > 100 µM
TGI (SN12C renal): > 100 µM
TGI (SNB-19 CNS): > 100 µM
TGI (SNB-75 CNS): > 100 µM
TGI (SNB-78 CNS): > 100 µM
TGI (SW-620 colon): > 100 µM
TGI (TK-10 renal): > 100 µM
TGI (U251 CNS): > 100 µM
TGI (UACC-62 melanoma): > 100 µM
TGI (UO-31 renal): > 100 µM
TGI (XF 498 CNS): > 100 µM
